Measurements as given in PubChem BioAssay (NCI).
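Exposure lasted 48 hours, with cells grown in 96-well plates and compounds tested at five concentrations. Definition used: TGI = concentration required for complete inhibition of growth.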

Key:
Assay in all cases: DTP human tumour cell line panel, 48 h
K-562 leukemia = tested on: K-562 leukemia
HOP-92 NSCLC = tested on: HOP-92 NSCLC
NCI/ADR-RES ovarian = tested on: NCI/ADR-RES ovarian
UACC-257 melanoma = tested on: UACC-257 melanoma
RXF 393 renal = tested on: RXF 393 renal
NCI-H460 lung = tested on: NCI-H460 lung
SN12C renal = tested on: SN12C renal
HCT-15 colon = tested on: HCT-15 colon
BT-549 breast = tested on: BT-549 breast
786-0 renal = tested on: 786-0 renal
MDA-N = tested on: MDA-N

SMILES	TGI (K-562 leukemia) [µM]	TGI (HOP-92 NSCLC) [µM]	TGI (NCI/ADR-RES ovarian) [µM]	TGI (UACC-257 melanoma) [µM]	TGI (RXF 393 renal) [µM]	TGI (NCI-H460 lung) [µM]	TGI (SN12C renal) [µM]	TGI (HCT-15 colon) [µM]	TGI (BT-549 breast) [µM]	TGI (786-0 renal) [µM]	TGI (MDA-N) [µM]
CCOC(=O)c1c[nH]c2ccc3c(c2c1=O)S(=O)(=O)CC3 (tested in a mixture with another compound)	> 100	> 100	> 100	> 100	> 100	> 100	> 100	> 100			
Cc1cc(NS(=O)(=O)c2ccc(NC(=O)c3cccc4c(Nc5ccc(S(N)(=O)=O)cc5)c5ccccc5nc34)cc2)no1	> 100			> 100	> 100	> 100	> 100	> 100			
COc1cccc(/N=N/C(=NNC(=O)c2ccc(C)cc2)c2ccc(N(C)C)cc2)c1	> 100	> 100	> 100	> 100		> 100	> 100	> 100	> 100	> 100	> 100
O=C1NC2CCCCCC2C12CCCCC2 (configuration not stated)	> 100			> 100	> 100	> 100	> 100	> 100			
COc1ccc(C2=NOC(N)(c3ccc(OC)cc3)C2)cc1 (configuration not stated)	> 100	> 100	> 100	> 100		> 100	> 100	> 100	> 100	> 100	> 100
CC[C@@]1(O)C(=O)OCc2c1cc1n(c2=O)Cc2c-1nc1ccccc1c2/C=N\NC(=O)C(N)CCSC (some centres not stated)	> 100	2.98	23.9	2.45		0.624	0.925	> 90.3		1.92	> 100
Nc1ccc(Nc2cc(=O)[nH]c(=O)[nH]2)cc1Cl	> 100	> 100	> 100	> 100		> 100	> 100	> 100	> 100	> 100	> 100
COC(=O)C1CCC(=O)N1C(c1ccc2c(c1)OCO2)c1cc(OC)c(OC)c(OC)c1 (configuration not stated)	> 100	> 100		> 100		> 100	> 100	> 100	> 100	> 100	> 100
CC(C)(CCC(C)(C)N1OC1c1ccccc1)N1OC1c1ccccc1 (configuration not stated)	37.7	> 100	> 100	> 100		> 100	> 100	> 100	> 100	> 100	> 100
O=C1Cc2c([nH]c3ccc(C(=O)O)cc23)-c2ccccc2N1	> 100	> 100	> 100	> 100		> 100	> 100	> 100	> 100	> 100	> 100
NC(Cc1ccc(S(=O)(=O)O)cc1)C(=O)NC(Cc1ccc(S(=O)(=O)O)cc1)C(=O)NC(Cc1ccc(S(=O)(=O)O)cc1)C(=O)NC(Cc1ccc(S(=O)(=O)O)cc1)C(=O)O (configuration not stated)			> 100	> 100	> 100	> 100	> 100	> 100	> 100	> 100	> 100
